Where “and” joins values, the source holds several entries; their conditions need not be identical. Equal entries are not always repeated. Where two headings read alike, the source gives them in different places.
Tests used:
[1] = Dissociation constant (Kd) by UV absorbance titration at 280 nm, galactose; type: binding; conditions: 1 mM DBA2+Br, 50 mM phosphate buffer pH 7.4
Experimental: (§1) The affinity and selectivity of DBA+ to glucose were then tested by comparing affinity with other five mono- or di-saccharides, particularly fructose, galactose, maltose, sucrose, and lactose. The UV absorption changes at 280 nm of DBA+ with the increase of sugar concentration was used for the affinity calculation. The absorbance values of 1 mM DBA+Br at 280 nm as function of sugar concentrations from 0 to 512 mM were measured in 50 mM Phosphate PBS (pH=7.4).
(§2) where sqrt refers to the square root 11 Equation (11) is used for non-linear fitting in Origin to obtain the Kd values.
(§3) The disassociation constant (Kd) of DBA2+ was calculated through non-linear curve fitting according to previous work (Stootman, et al., Analyst, 131:1145-1151 (2006)).

[2] = Dissociation constant (Kd) by UV absorbance titration at 280 nm, maltose; type: binding; conditions: 1 mM DBA2+Br, 50 mM phosphate buffer pH 7.4
Experimental: as §1, §2, §3

[3] = Dissociation constant (Kd) by UV absorbance titration at 280 nm, glucose; type: binding; conditions: 1 mM DBA2+Br, 50 mM phosphate buffer pH 7.4
Experimental: 100 μL of glucose aqueous solutions with two-fold serial dilutions from 1024 mM to 0.5 mM were added into a 96 well microplate. Then 100 μL of 2 mM DBA2+Br in 100 mM phosphate buffer (pH=7.4) was added. After shaking for 10 s and waiting for 30 min, the absorbance of each well at 280 nm was recorded on a microplate reader.
as §1
The titration data was plotted. The disassociation equation for complex DBAG is as follows: […]
where DBAG refers to all three possible complexes, DBA2+G, DBA1+G and DBA-G, and DBA2 refers to all the unbound molecules, DBA2+, DBA1+ and DBA0.
as §2, §3

[4] = Dissociation constant (Kd) by UV absorbance titration at 280 nm, lactose; type: binding; conditions: 1 mM DBA2+Br, 50 mM phosphate buffer pH 7.4
Experimental: as §1, §2, §3

[5] = pKa measurement by absorbance at 280 nm as a function of pH; type: physicochemical; conditions: for pKa: aqueous buffer solutions in 96-well microplate, 1 mM DBA2+Br, absorbance at 280 nm vs pH
Experimental: 100 mM buffer solutions for titration from pH 4 to pH 11.5 were prepared with different buffer systems to ensure the accuracy of pH for the following tests. NaAc/HAc was prepared for pH 4.05, 4.53, 5.03 and 5.53; Na2HPO4/NaH2PO4 was prepared for pH 6.00, 6.51, 6.99 and 7.51; NaB(OH)4/B(OH)3 was prepared for pH 8.05, 8.56 9.03 and 9.53; Na2CO3/NaHCO3 was prepared for pH 10.01, 10.54, 11.01 and 11.49.
50 μL of buffer solutions at different pH was added into 96 microplate wells. Then 50 μL of 2 mM DBA2+Br or a mixture of 2 mM DBA2+Br and 400 mM glucose in water was added to each well.
After shaking for 10 s and waiting for 10 min, the absorbance of each well at 280 nm was recorded on a microplate reader.
Due to the interaction between borate and glucose, the pH of the borate buffer solution is changed and thus the data for DBA2+Br/Glucose from pH 8 to 9.5 were abandoned. The rest of the data was plotted in Origin. The equilibrium equation for DBA2+ is as follows: […]
Then equation (4) is used for non-linear fitting in Origin, and pKa is defined as the pH at which half of the boronic acid is in the anionic state:
The same non-linear curve fitting also was used for the determination of pKa of DBAG2+G which has equilibrium equation as follow: […]
The pKa of DBA2+ before and after glucose binding was determined based on the differences in absorption spectra upon formation of tetrahedral borate anion in high pH media (Springsteen, et al., Tetrahedron, 58:5291-5300 (2002)).
pKa values were determined by curve fitting the changes in absorbance as a function of pH (FIG. 1).

[6] = Dissociation constant (Kd) by UV absorbance titration at 280 nm, fructose; type: binding; conditions: 1 mM DBA2+Br, 50 mM phosphate buffer pH 7.4
Experimental: as §1, §2, §3

[7] = Dissociation constant (Kd) by UV absorbance titration at 280 nm, sucrose; type: binding; conditions: 1 mM DBA2+Br, 50 mM phosphate buffer pH 7.4
Experimental: as §1, §2, §3

[8] = Effect of interference sugars on DBA2+ based conductimetric sensor (solution resistance); conditions: interference sugar 1 mM (maltose 10 mM), relative to resistance with glucose alone
Experimental: To a reservoir in a device set up as depicted shown in FIG. 3, 1 mL of the initial testing solution (2 mM DBA2+P and 2.5 mM Na3PO4, pH=7.6) was added. Direct current voltage is 0 mV due to the same material for two electrodes. Alternating current voltage was set at 20 mV, and the impedance was scanned vs. frequency from 10 Hz to 10 MHz (FIGS. 4A-4C). At 0.1 MHz, the capacitive reactance is very small compared to the resistance (R) of the solution, and thus this frequency was used for the following tests.
To the testing solution, trace quantities (2-5 μL) of a concentrated (0.5 or 2 M) glucose aqueous solution were continuously added. Glucose solutions were added every 30 minutes with concentrations spanning the diabetes-relevant range, (i.e. [glucose]=0-30 mM). The resistance of solution vs. time was collected for 30 min after each addition. After adding glucose to 30 mM, the testing solution was diluted to 12 mM by adding 1.5 mL of fresh testing solution. 1.5 mL was then discharged after mixing and the resistance of the remaining 1 mL solution was monitored.
Interference effects from other sugars, i.e. fructose, galactose, maltose, and lactose, were examined. Tests were performed at two different glucose concentrations typically experienced in diabetes, 5 mM (i.e. a physiological concentration of glucose) and 20 mM (i.e. a pathophysiological concentration of glucose) in 1 mL of testing solution. In these tests, interferent concentrations were higher or equal to 2.5 times the maximum plasma concentration (MPC). To the testing solution containing glucose, 2 μL or 5 μL of one of the interference solutions (containing fructose, galactose, maltose, or lactose) were added and the solution resistance (R) was monitored. The interference by 1 mM fructose or galactose was tested due to the considerable high affinity compared to the other […].

[9] = maximum physiological or therapeutic plasma concentration, cited from earlier work
[10] = presence of 200 mM glucose (DBA-G), read-out: pKa in the presence of glucose
[11] = testing solution with 5 mM glucose
[12] = testing solution with 20 mM glucose

SMILES: C[N+](C)(Cc1ccc(C[N+](C)(C)Cc2ccccc2B(O)O)cc1)Cc1ccccc1B(O)O [DBA2+]
- Kd [1]: 16000 µM
- Kd ([1]; listed as Formula III): ~16000 µM
- Kd value for maltose [2]: could not be determined due to their low affinity
- Kd [3]: 900 ± 100 µM
- Kd value for lactose [4]: could not be determined due to their low affinity
- pKa1 ([5]; absence of glucose): 9.0
- pKa2 ([5]; absence of glucose): 9.7
- pKa ([5]; absence of glucose, read-out: pKa): 9.4
- pKa [5, 10]: 6.3
- pKa1 ([5]; presence of 200 mM glucose): 5.9
- pKa2 ([5]; presence of 200 mM glucose): 6.9
- change in pKa for DBA2+ and DBA-G ([5]; upon glucose binding, centers around pH 7.4): ~3 unit
- Kd [6]: 1700 µM
- Kd ([6]; listed as Formula III): ~1700 µM
- Kd value for sucrose [7]: could not be determined due to their low affinity

SMILES: C[N+]1(C)Cc2ccc(cc2)C[N+](C)(C)Cc2ccccc2[B-]2(O)OC3OC4CO[B-](O)(OC4C(O)C3O2)c2ccccc2C1 (centres unmarked) [DBA-G]
- pKa [5, 10]: 6.3

SMILES: O=C(CO)[C@@H](O)[C@H](O)[C@H](O)CO [Fructose, fructose]
- Resistance increase [8, 11]: 3% and 2.9%
- Resistance increase [8, 12]: −0.3%
- Max plasma [sugar] [9]: 0.133 mM
- Max plasma [sugar] ([9]; listed as fructose): 0.13 mM

SMILES: O=C[C@H](O)[C@@H](O)[C@@H](O)[C@H](O)CO [Galactose, galactose]
- Resistance increase [8, 11]: 1.4%
- Resistance increase [8, 12]: 0.6%
- Max plasma [sugar] [9]: 0.28 mM

SMILES: OC[C@H]1O[C@@H](O[C@H]2[C@H](O)[C@@H](O)C(O)O[C@@H]2CO)[C@H](O)[C@@H](O)[C@H]1O (some centres unmarked) [Lactose, lactose]
- Resistance increase [8, 11]: 0.2%
- Resistance increase [8, 12]: 1.6%
- Max plasma [sugar] [9]: 0.015 mM

SMILES: OC[C@H]1O[C@H](O[C@H]2[C@H](O)[C@@H](O)[C@H](O)O[C@@H]2CO)[C@H](O)[C@@H](O)[C@@H]1O [Maltose, maltose]
- Resistance increase [8, 11]: 0.4%
- Resistance increase [8, 12]: 1.6%
- Max plasma [sugar] [9]: 3.5 mM

— patent US20220204531A1, “DIBORONIC ACID COMPOUNDS AND METHODS OF MAKING AND USING THEREOF” (The Regents of The University of California, priority 2020, published 2022)
